The values below come from patent US8044094B2, “Agents for preventing and treating disorders connected to impaired neurotransmission” (DSM IP Assets B.V., priority 2004, dated 2011).

Assay [1] has as its target T1, human serotonin re-uptake transporter (hSERT) (Homo sapiens, UniProt P31645). The assay can be described thus: Serotonin uptake inhibition in HEK-293 cells stably expressing hSERT. Type of assay: cell-based. The procedure: HEK-293 cells stably expressing the human serotonin re-uptake transporter (hSERT) were obtained from R. Blakely, Vanderbilt University, USA. The cells were routinely grown in Dulbeco's Modified Eagles Medium, purchased from Bioconcept, Allschwil, Switzerland containing 10% fetal calf serum, penicillin, streptomycin, L-glutamine and the antibiotic G418 and passaged by trypsinisation. 1 day prior to the assay cells were seeded in the above mentioned medium. Immediately prior to the assay the medium was replaced by Krebs Ringers bicarbonate buffer, purchased from Sigma Chemicals Ltd., supplemented with 35 μM pargyline, 2.2 mM CaCl2, 1 mM ascorbic acid and 5 mM N-2-hydroxyethylpiperazine-N′-2-ethanesulfonic acid (buffer called “Hepes”). Serotonin uptake into the cells was determined by addition of radio-labeled (3H) serotonin (Amersham Biosciences GE Healthcare, Slough, UK) to a concentration of 20 nM, and incubation for 30 minutes at room temperature. Following removal of unincorporated label by gentle washing three times with the above buffer, incorporated serotonin was quantified by liquid scintillation counting.
(§1) The effect of the coumarin ethers of formula I on the serotonin uptake and the citalopram binding was determined by its inclusion in the assay at a range of concentrations between 0.03 and 100 μM for 10 minutes prior to and during the addition of (3H) serotonin/citalopram. Serotonin uptake via the transporter and citalopram binding were both inhibited by the coumarin ethers of formula I in a dose dependent manner. The calculated inhibition constants Ki, derived from the measured IC50 using the Cheng—Prusoff equation (Y. C. Cheng, W. H. Prusoff, Biochem. Pharmacol. 1973, 22, p. 3099-3108), for inhibition of serotonin uptake and citalopram binding by coumarin ethers of the formula I are shown in Table 1.

Another assay has as its system mice. The assay can be described thus: Marble burying test (anxiety like or obsessive compulsive behaviour). Type of assay: in vivo. The settings on record: for number of marbles covered by sawdust, mean ± s.e.m.: 25 marbles, 30-minute test. The procedure: The method applied here follows that described by Broekkamp et al. (1986). Mice (n=15 per treatment group) were individually placed in transparent plastic cages (33×21×18 cm) with 5 cm of sawdust on the floor and 25 marbles (diameter 1 cm) grouped in the centre of the cage. A second, up-turned, cage served as a lid. The number of marbles covered by sawdust (by at least two-thirds) was counted at the end of the 30-minute test period. Tests were performed by investigators blind to the drug treatment protocol.
Prior to testing, all test cages and marbles were “impregnated” by leaving 10 naive mice in each cage for 15 minutes.
7-Geranyl-oxycoumarin was evaluated at 3, 10 and 30 mg/kg, administered i.p. 30 minutes before the test, and compared with a vehicle control group. 7-Geranyl-oxycoumarin was dissolved in a saline solution containing 3 weight-% DMSO and 3 weight-% Tween® 80 (so called “vehicle”). To the control group the vehicle consisting of the saline solution containing 3 weight-% DMSO and 3 weight-% Tween® 80 was administered intraperitonally. Fluoxetine (32 mg/kg), administered under the same experimental conditions, was used as a reference substance.
Data were analysed by comparing treated groups with vehicle control using unpaired Student's t-tests.

The target of assay [2] is T1, human serotonin re-uptake transporter (hSERT). The assay is described as follows: Labeled citalopram displacement from hSERT containing membranes (SPA). The assay is classed as binding. As to the method: Membranes containing hSERT were prepared from the above cell line according to Galli et al, Journal of Experimental Biology 1995, 198, 2197-2212. 3 μg of membrane protein and 0.8 mg of wheat germ aglutinin coated SPA® (scintillation proximity assay) beads (Amersham Biosciences GE Healthcare, Slough, UK) per data point were mixed with radio-labeled (3H) citalopram (Amersham Biosciences GE Healthcare, Slough, UK) until a final concentration of 3.3 nM in 50 mM Tris-HCl, 300 mM NaCl (pH 7.4). After incubation for 18 hours at room temperature, the bound citalopram was quantified by liquid scintillation counting.
as §1

Setting [3] is: transfected HEK-293 cells, Ki from IC50 by Cheng-Prusoff, 20 nM (3H) serotonin, read-out: Inhibition constant Ki for tritiated serotonin uptake.
The mark [4] stands for this setting: hSERT containing membranes, Ki from IC50 by Cheng-Prusoff, 3.3 nM (3H) citalopram, read-out: Inhibition constant Ki for tritiated citalopram displacement.

T1 sequence (P31645 whole entry): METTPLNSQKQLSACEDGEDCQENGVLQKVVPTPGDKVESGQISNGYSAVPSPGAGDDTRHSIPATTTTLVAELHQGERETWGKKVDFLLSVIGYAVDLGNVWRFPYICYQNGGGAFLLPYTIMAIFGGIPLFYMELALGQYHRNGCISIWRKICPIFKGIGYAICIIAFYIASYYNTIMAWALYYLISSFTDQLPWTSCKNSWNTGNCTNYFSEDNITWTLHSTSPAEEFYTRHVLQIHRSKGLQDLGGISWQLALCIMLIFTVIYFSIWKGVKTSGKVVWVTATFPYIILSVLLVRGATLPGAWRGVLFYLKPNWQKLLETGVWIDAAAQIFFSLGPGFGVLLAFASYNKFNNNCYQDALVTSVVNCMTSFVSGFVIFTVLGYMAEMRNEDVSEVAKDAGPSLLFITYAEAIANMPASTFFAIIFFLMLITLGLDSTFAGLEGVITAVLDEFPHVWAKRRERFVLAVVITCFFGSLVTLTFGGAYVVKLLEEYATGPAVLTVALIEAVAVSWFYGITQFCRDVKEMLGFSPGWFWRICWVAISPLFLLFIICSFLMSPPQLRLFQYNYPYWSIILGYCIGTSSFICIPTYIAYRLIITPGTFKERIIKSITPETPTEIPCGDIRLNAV

As for `CC(C)=CCC/C(C)=C/COc1ccc2ccc(=O)oc2c1` [7-Geranyloxycoumarin, 7-geranyloxycoumarin], the Ki (usually the equilibrium dissociation constant of an inhibitor or competing ligand from its target) is 22.4 µM in assay [1] (setting [3]) and 24.2 µM in assay [2] (setting [4]). Also, the “number of marbles covered by sawdust, % change from control” value is given as −27% in the assay on mice (3 mg/kg i.p. −30 minutes, 3 mg/kg); −27% in the assay on mice (3 mg/kg i.p. −30 minutes, listed as 7-Geranyl-oxycoumauin, 3 mg/kg); −39% in the assay with mice (10 mg/kg i.p. −30 minutes, 10 mg/kg); −39% in the assay with mice (10 mg/kg i.p. −30 minutes, listed as 7-Geranyl-oxycoumauin, 10 mg/kg); −74% with mice (30 mg/kg i.p. −30 minutes, 30 mg/kg); −74% with mice (30 mg/kg i.p. −30 minutes, listed as 7-Geranyl-oxycoumauin, 30 mg/kg). The “number of marbles covered by sawdust, mean ± s.e.m.” value in the assay on mice (3 mg/kg i.p. −30 minutes) is given as 13.4 ± 2.0; in the assay with mice (10 mg/kg i.p. −30 minutes) it was 11.3 ± 2.4; with mice (30 mg/kg i.p. −30 minutes) it was 4.7 ± 1.5.
For the compound `COc1cc2oc(=O)ccc2cc1CC=C(C)C` [Suberosin, suberosin], the Ki in assay [1] (setting [3]) is 9.8 µM; in assay [2] (setting [4]) it was 39.3 µM.
Consider `C/C(=C\COc1ccc2ccc(=O)oc2c1)C1=CC(=O)C(C)(C)O1` [Geiparvarin, geiparvarin], for which the Ki is 7 µM in assay [1] and 5.6 µM in assay [2].
Turning to `CNCCC(Oc1ccc(C(F)(F)F)cc1)c1ccccc1` (stereo not drawn) [fluoxetine, reference compound], the “number of marbles covered by sawdust, % change from control” value in the assay on mice (32 mg/kg i.p. −30 min, 32 mg/kg) is −98%; with mice (32 mg/kg i.p. −30 min, listed as Fluoxetine, 32 mg/kg) it was −98%. Besides, in the assay with mice (32 mg/kg i.p. −30 min), the “number of marbles covered by sawdust, mean ± s.e.m.” value stood at 0.3 ± 0.2.
Take `CC(=O)OC(C)(C)[C@@H]1Cc2c(ccc3ccc(=O)oc23)O1` [(S)—O-Acetylcolumbianetin]: the Ki is 21.7 µM in assay [1] (setting [3]) and 11.6 µM in assay [2] (setting [4]).
The like results for `C/C(=C\COc1ccc2ccc(=O)oc2c1)CCC(=O)C(C)(C)O` [6′-Dehydromarmin, 6′-dehydromarmin] were, in that order, 12.1 µM and 10.3 µM.
The like results for `CC1(C)C=Cc2cc3ccc(=O)oc3cc2O1` [Xanthyletin, xanthyletin] were, in that order, 20.2 µM and 11.9 µM.
